Reference: US20240009174A1, “METHODS FOR DISRUPTING MITOCHONDRIAL UNFOLDED PROTEIN RESPONSE” (Health Research, Inc., priority 2020, published 2024)

How the values were obtained:
Assay type in all cases: cell-based
[1] = tested on: PCa cells (LNCaP and PC-3); experiment: Cell death / apoptosis in PCa cells (Annexin V FITC/PI flow cytometry)
Protocol: (§1) FIG. 6. Pharmacological inhibition of HSP60-ClpP interaction induces UPR^mt and PCa cell death. (A) Docking of DCEM1 into apical domain of HSP60. (B) LNCaP and PC-3 cells were treated with DCEM1 for 24 hours and HSP60-ClpP interaction was analyzed by co-immunoprecipitation assay. (C) LNCaP and PC-3 cells were treated with DCEM1 for 24 hours and mitoROS levels were analyzed by flow cytometry using mitoSOX dye. (D) LNCaP and PC-3 cells were treated with DCEM1 for 24 hours and poly-Ub protein levels were analyzed by western blotting. (E) LNCaP and PC-3 cells were treated with DCEM1 for 24 and 48 hours and apoptotic cell populations were analyzed by flow cytometry using Annexin V FITC/PI method as explained in materials and methods. In (E) top panel, the bars in each series from left to right are control, 5, 10, and 20, and in (E) bottom panel, the bars in each series from left to right are DMSO, 5, 10, and 20. (F) LNCaP and PC-3 cells were treated with DCEM1 for 24 and 48 hours and lysates were prepared and analyzed for DEVDase activity using specific peptide substrate. […] (G) LNCaP and PC-3 cells were pre-treated with SKQ1 followed by DCEM1 treatment and analyzed for cell viability by MTT assay. (H) LNCaP and PC-3 cells were treated with either DCEM1 or H2O2 (200 μM) for 24 hours and total DNA were isolated and analyzed for mtDNA damage as described in materials and methods. […]

[2] = tested on: RWPE-1 cells; experiment: Apoptosis in non-carcinoma RWPE-1 cells (Annexin V/PI labeling); details: 24 h and 48 h, doses 5, 10, 20
Protocol: FIG. 9. Structure of DCEM1 is shown in (A). (B) Human prostate epithelial non carcinoma RWPE-1 cells were treated with DCEM1 at indicated doses for 24 h and 48 h and apoptotic cells were quantified by Annexin V/PI labeling as described in material and methods. In (B), the bars in each series from left to right are DMSO, 5, 10, and 20.
Identification of novel inhibitor of HSP60-ClpP interaction that disrupts UPR^mt function and induces PCa cell death. Having shown that two arms of UPR^mt, HSP60 chaperonin and ClpP protease interact and play critical role in PCa cell survival, an in silico analysis was performed and a small molecule library (developed by Enamine Ltd) was screened to identify drugs targeting the apical domain of HSP60 critical for its interaction with ClpP. 9 compounds (A-I) were identified and screened for their cell death inducing potential in PCa cells (data not shown). […] Colony forming ability of PCa cells was inhibited by DCEM1 treatment (data not shown).

[3] = tested on: LNCaP and PC-3 cells; experiment: poly-Ub protein levels by western blotting; details: 24 hours
Protocol: as §1

[4] = tested on: c-Myc, EZH2, AR, PSA; experiment: c-Myc, EZH2, AR and PSA protein expression in PCa cells; details: LNCaP, 24 hours
Protocol: FIG. 8. Pharmacological inhibition of HSP60-ClpP inhibit oncogenic signaling and PCa tumor growth in vivo. (A) LNCaP, PC-3 and 22RV1 cells were treated with DCEM1 and analyzed for c-Myc and EZH2 protein expression after 24 hours of treatment. (B) LNCaP, 22RV1 and VCaP cells were treated with DCEM1 and analyzed for AR and PSA protein expression after 24 hours of treatment. (C-D) 22RV1 cells (1×10^6 cells) were mixed with matrigel (50:50 v/v) and injected into each flank of SCID mice and treated with DCEM1 (60 mg/kg bw) through IP route twice weekly and tumors were harvested, photographed (C) and weighed (D) at 30 days. (E) DEVDase activity were analyzed in 22RV1 xenograft tumor tissue following DCEM1 treatment and represented as fold change compared to control. (F) 22RV1 xenograft tissue were sectioned and expression of ki67, c-Myc and EZH2 proteins were analyzed by Immunohistochemistry as described in material and methods. […] (I) DEVDase activity were analyzed in PC-3 xenograft tumor tissue following DCEM1 treatment and represented as fold change compared to control. […] All animals were sacrificed at 16 weeks of age and prostate tissue and tumors were harvested, whole cell lysate were prepared and analyzed for HSP60 and ClpP expression (N); c-Myc and EZH2 expression (0) and SYP and CK 8/18 expression (P) by immunoblotting. […]

Q: For `CCOc1cc(CNCc2nc3ccccc3[nH]2)ccc1OCc1cccs1` [DCEM1], which apoptotic cell death ([1]; LNCaP and PC-3 cells, 24 and 48 hours, Annexin V FITC/PI) is on record?
A: apoptotic cell death was observed

Q: What about the “cell death in PCa cells” value ([1]; PCa cells) of the same compound?
A: robust cell death

Q: What about the “effect (cell death/apoptosis) on non-carcinoma prostate epithelial RWPE-1 cells” value [2] of the same compound?
A: no effect

Q: What about the poly-Ub protein levels [3] of the same compound?
A: increased accumulation of poly-Ub proteins

Q: And the PSA levels ([4]; 22RV1 and VCaP cells)?
A: Decrease in PSA levels

Q: And the “c-Myc, EZH2, and AR signaling in PCa cells” value ([4]; PC-3, 22RV1, VCaP cells)?
A: downregulates c-Myc, EZH2, and AR signaling
